From ChEMBL document CHEMBL1201862, “PubChem BioAssay data set” (2004)
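All cell lines were grown in 96-well plates and treated with compound for 48 hours. At the GI50, growth is halved.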 The source made the active and inactive calls. No stated cut-off is given here; in the data, active = GI50 up to about 1.1 µM and inactive = higher.

Columns and labels:
Test in all cases: NCI tumour cell line growth inhibition, 48 h
[1] = tested on: UACC-257
[2] = tested on: SK-MEL-28
[3] = tested on: COLO 205
[4] = tested on: SF-268
[5] = tested on: TK-10
[6] = tested on: UACC-62
[7] = tested on: HCT-15
[8] = tested on: SNB-75
[9] = tested on: SK-MEL-2
[10] = tested on: LOX IMVI
[11] = tested on: IGROV-1
[12] = tested on: DLD-1
[13] = tested on: DMS-114
[14] = tested on: CAKI-1
[15] = tested on: NCI-H226
[16] = tested on: RXF 393
[17] = tested on: UO-31
[18] = tested on: U-251
[19] = tested on: LXFL 529
[20] = tested on: HOP-18
[21] = tested on: HT-29
[22] = tested on: NCI-H23
[23] = tested on: A498
[24] = tested on: SNB-19
[25] = tested on: OVCAR-3
[26] = tested on: M19-MEL
[27] = tested on: Malme-3M
[28] = tested on: XF498
[29] = tested on: KM12
[30] = tested on: A549
[31] = tested on: OVCAR-8
[32] = tested on: DMS-273
[33] = tested on: KM-20L2
[34] = tested on: K562
[35] = tested on: OVCAR-5
[36] = tested on: ACHN
[37] = tested on: SW-620
[38] = tested on: SNB-78
[39] = tested on: 786-0
[40] = tested on: SF-539
[41] = tested on: OVCAR-4
[42] = tested on: HL-60
[43] = tested on: SN12C
[44] = tested on: HCC 2998
[45] = tested on: SK-OV-3
[46] = tested on: NCI-H522
[47] = tested on: HOP-62
[48] = tested on: M14
[49] = tested on: SF-295
[50] = tested on: SK-MEL-5
[51] = tested on: EKVX
[52] = tested on: HOP-92
[53] = tested on: MOLT-4
[54] = tested on: NCI-H460
[55] = tested on: CCRF-CEM
[56] = tested on: RPMI-8226

Question: What does the source list for Cc1noc(C)c1CCCOC1COc2ccccc2OCCOCCOc2ccccc2OC1?
Answer: GI50 [1]: > 100 µM (inactive); GI50 [2]: > 100 µM (inactive); GI50 [3]: > 100 µM (inactive); GI50 [4]: > 100 µM (inactive); GI50 [5]: > 100 µM (inactive); GI50 [6]: 27.5 µM (inactive); GI50 [7]: > 100 µM; GI50 [8]: 65.8 µM (inactive); GI50 [9]: > 100 µM (inactive); GI50 [10]: > 100 µM (inactive); GI50 [11]: > 100 µM (inactive); GI50 [12]: > 100 µM (inactive); GI50 [13]: > 100 µM (inactive); GI50 [14]: > 100 µM (inactive); GI50 [15]: > 100 µM (inactive); GI50 [16]: > 100 µM (inactive); GI50 [17]: > 100 µM (inactive); GI50 [18]: > 100 µM (inactive); GI50 [19]: > 100 µM (inactive); GI50 [20]: > 100 µM (inactive); GI50 [21]: > 100 µM (inactive); GI50 [22]: > 100 µM (inactive); GI50 [23]: > 100 µM (inactive); GI50 [24]: > 100 µM (inactive); GI50 [25]: > 100 µM (inactive); GI50 [26]: > 100 µM (inactive); GI50 [27]: 80.4 µM (inactive); GI50 [28]: > 100 µM (inactive); GI50 [29]: > 100 µM (inactive); GI50 [30]: > 100 µM (inactive); GI50 [31]: > 100 µM (inactive); GI50 [32]: > 100 µM (inactive); GI50 [33]: > 100 µM (inactive); GI50 [34]: > 100 µM (inactive); GI50 [35]: > 100 µM (inactive); GI50 [36]: > 100 µM (inactive); GI50 [37]: > 100 µM (inactive); GI50 [38]: > 100 µM (inactive); GI50 [39]: > 100 µM (inactive); GI50 [40]: > 100 µM (inactive); GI50 [41]: > 100 µM (inactive); GI50 [42]: > 100 µM (inactive); GI50 [43]: > 100 µM (inactive); GI50 [44]: > 100 µM (inactive); GI50 [45]: > 100 µM (inactive); GI50 [46]: > 100 µM (inactive); GI50 [47]: > 100 µM (inactive); GI50 [48]: > 100 µM (inactive); GI50 [49]: > 100 µM (inactive); GI50 [50]: > 100 µM (inactive); GI50 [51]: > 100 µM (inactive)

Question: Which results are given for O=C1O[C@H](C(Cl)(Cl)Cl)N2CCCC12 (some centres undefined)?
Answer: GI50 [1]: > 100 µM (inactive); GI50 [2]: > 100 µM (inactive); GI50 [3]: > 100 µM (inactive); GI50 [4]: > 100 µM (inactive); GI50 [5]: > 100 µM (inactive); GI50 [6]: > 100 µM (inactive); GI50 [7]: > 100 µM; GI50 [8]: > 100 µM (inactive); GI50 [9]: > 100 µM (inactive); GI50 [10]: > 100 µM (inactive); GI50 [11]: > 100 µM (inactive); GI50 [13]: > 100 µM (inactive); GI50 [14]: > 100 µM (inactive); GI50 [15]: > 100 µM (inactive); GI50 [16]: > 100 µM (inactive); GI50 [52]: > 100 µM (inactive); GI50 [17]: > 100 µM (inactive); GI50 [18]: > 100 µM (inactive); GI50 [19]: > 100 µM (inactive); GI50 [20]: 18.5 µM (inactive); GI50 [21]: > 100 µM (inactive); GI50 [22]: > 100 µM (inactive); GI50 [23]: > 100 µM (inactive); GI50 [24]: > 100 µM (inactive); GI50 [25]: > 100 µM (inactive); GI50 [26]: > 100 µM (inactive); GI50 [27]: > 100 µM (inactive); GI50 [28]: > 100 µM (inactive); GI50 [29]: > 100 µM (inactive); GI50 [30]: > 100 µM (inactive); GI50 [31]: > 100 µM (inactive); GI50 [32]: > 100 µM (inactive); GI50 [33]: > 100 µM (inactive); GI50 [34]: > 100 µM (inactive); GI50 [35]: > 100 µM (inactive); GI50 [36]: > 100 µM (inactive); GI50 [37]: > 100 µM (inactive); GI50 [53]: > 100 µM (inactive); GI50 [39]: > 100 µM (inactive); GI50 [40]: > 100 µM (inactive); GI50 [41]: > 100 µM (inactive); GI50 [42]: > 100 µM (inactive); GI50 [43]: > 100 µM (inactive); GI50 [45]: > 100 µM (inactive); GI50 [46]: > 100 µM (inactive); GI50 [47]: > 100 µM (inactive); GI50 [54]: > 100 µM (inactive); GI50 [48]: > 100 µM (inactive); GI50 [49]: > 100 µM (inactive); GI50 [50]: > 100 µM (inactive); GI50 [55]: > 100 µM (inactive); GI50 [56]: > 100 µM (inactive); GI50 [51]: > 100 µM (inactive)
